Experiments:
Format in all cases: physicochemical
[1] = Particle size distribution by laser diffraction (Sympatec) after processing; conditions: for D10 / D50 / D90 / Span: micronized fluticasone propionate; for Particle Size Distribution Initial X10: micronized sucrose
[2] = Amorphous content by (dynamic) vapor sorption; conditions: for Amorphous content by ethanol vapor sorption isotherm / Amorphous content by water vapor sorption isotherm: 25° C.; for Amorphous content by ethanol vapor sorption isotherm: FIG. 9 / FIG. 11; for Amorphous content by water vapor sorption isotherm: FIG. 13
Source text: (§1) A portion of the micronized GP was also conditioned using an in-process conditioning system wherein nitrogen conditioning gas was supplied to the in-process conditioning system and was controlled for flow rate, temperature and humidity. The conditioning gas was humidified through a droplet evaporation chamber after which it was directed to a mixing zone. In the mixing zone, the conditioning gas was mixed with the jet-milled aerosol comprising the micronized GP. The aerosol then entered a conditioning zone where annealing of the micronized GP occurred. The particle residence time through the conditioning zone was adjusted by means of the conditioning zone chamber geometry and/or the gas flow rate through the conditioning zone chamber. After passing through the conditioning zone, the micronized GP particles reached the cyclone-collection zone where the solid particles were separated from the gas phase and transported to a collection vessel. Upon completion of the batch processing, the collector was disengaged and transferred to a glove box for sampling. The sampling occurred in a <5% relative humidity environment. Samples were then analyzed for particle size distribution and amorphous content.
(§2) The amorphous content by vapor sorption and particle morphology for both batches were also assessed. FIG. 9 provides the ethanol vapor sorption isotherm at 25° C. for both batches of micronized budesonide.
(§3) The amorphous content by vapor sorption and particle morphology for both batches were also assessed. FIG. 11 provides the ethanol vapor sorption isotherm at 25° C. for both batches of micronized fluticasone.
All batches were also analyzed for amorphous content by dynamic vapor sorption using n=2 replicates per collector.
(§4) The amorphous content by vapor sorption and particle morphology for both batches of micronized sucrose were also assessed. FIG. 13 provides the water vapor sorption isotherm at 25° C. for both batches of micronized sucrose.

[3] = Particle size distribution by laser diffraction (Sympatec) after processing; conditions: for Physical stability after micronization judged from size distribution: laser diffraction, Tables 4 and 5; for Particle Size Distribution Initial Span / Particle Size Distribution Initial X50 / Particle Size Distribution Initial X90: micronized sucrose
Source text: When referred to herein, the term “optical diameter” indicates the size of a particle as measured using a laser diffraction particle size analyzer equipped with a dry powder dispenser (e.g., Sympatec GmbH, Clausthal-Zellerfeld, Germany).
as §1
(§5) Both micronized sucrose batches were analyzed for particle size distribution by Sympatec laser diffraction.

[4] = Particle morphology by electron micrograph / SEM; conditions: FIG. 10 / FIG. 12 / FIG. 14
Procedure: as §2, §3, §4

[5] = Physical stability: particle size distribution and fusing after 1-day exposure to 25° C. and 60% relative humidity; conditions: micronized sucrose; for Physical Stability: 25° C./60% RH; for Stability of powder on exposure: Sucrose A by visual observation, Sucrose B exposed to 25° C./60% RH
Source text: When used to refer to the conditioned particulate material described herein, the terms “physical stability” and “physically stable” refer to a composition that is resistant to one or more of particle fusing, aggregation, agglomeration, and particle size changes. In certain embodiments, physical stability may be evaluated through exposing the particulate material to accelerated degradation conditions, such as increased temperature and/or humidity as described herein.
as §5

[6] = Stability diagram (glass transition plasticization curve combined with sorption isotherm); conditions: from stability diagram FIG. 18
Source text: Crystallization of an amorphous phase typically occurs rapidly when the amorphous material is exposed to conditions that exceed its glass transition temperature, usually twenty degrees Celsius above the glass transition temperature (Lechuga-Ballesteros, D.; Miller, D. P.; Zhang, J., Residual water in amorphous solids, measurement and effects on stability. In Progress in Amorphous Food and Pharmaceutical Systems, Levine, H., Ed. The Royal Society of Chemistry: London, 2002; pp 275-316). Exposure of amorphous material to temperature in excess of the glass transition can be achieved in the absence of any solvent by exposing the amorphous material to a stream of hot air above its glass transition temperature. However, the glass transition temperature is also a function of the fraction of solvent present in the amorphous material, an effect known as plasticization.
In addition, the solvent content held in an amorphous material is a function of the vapor concentration of the solvent surrounding the amorphous solid. The sorption isotherm of a given material is a representation of the amount of solvent in the amorphous material as a function of the solvent activity (which is proportional to the solvent vapor pressure to saturation solvent vapor pressure ratio) at a given temperature. […]

Row | Structure (SMILES) | D10 [1] [μm] | D50 [1] [μm] | D90 [1] [μm] | Span [1] | Amorphous content by ethanol vapor sorption isotherm [2] | Physical stability after micronization judged from size distribution [3] | Particle morphology by SEM, annealed compared with unannealed material [4] | Amorphous content by water vapor sorption isotherm [2] | Stability of powder on exposure [5] | also measured
1 | CCC(=O)O[C@]1(C(=O)SCF)[C@H](C)C[C@H]2[C@@H]3C[C@H](F)C4=CC(=O)C=C[C@]4(C)[C@@]3(F)[C@@H](O)C[C@@]21C [Micronized Fluticasone propionate, Batch 1 (unannealed)] | 0.5 | 1.5 | 3.4 | 2.0 | remained substantially amorphous | agglomeration |  |  |  | Ethanol relative pressure at which weight loss is seen ([2]; ethanol vapor sorption isotherm at 25° C.): 60 % p/po
2 | CCC(=O)O[C@]1(C(=O)SCF)[C@H](C)C[C@H]2[C@@H]3C[C@H](F)C4=CC(=O)C=C[C@]4(C)[C@@]3(F)[C@@H](O)C[C@@]21C [Micronized Fluticasone propionate, Batch 2 (annealed)] | 0.5 | 1.4 | 3.1 | 1.9 | stable and showed no crystallization event | good physical stability | smoother surfaces and more rounded edges |  |  | 
3 | OC[C@H]1O[C@@](CO)(O[C@H]2O[C@H](CO)[C@@H](O)[C@H](O)[C@H]2O)[C@@H](O)[C@@H]1O [Sucrose A, Sucrose] |  |  |  |  |  |  |  | remained substantially amorphous | fusing of the material | Particle Size Distribution Initial X10 ([1]; listed as Sucrose 1): 0.5 μm; Water relative pressure at which weight loss is seen ([2]; water vapor sorption isotherm at 25° C.): 30 % p/po; Physical Stability ([5]; listed as Sucrose 1): Unstable,; Particle Size Distribution Initial Span ([3]; listed as Sucrose 1): 2.4; Particle Size Distribution Initial X50 ([3]; listed as Sucrose 1): 1.7 μm; Particle Size Distribution Initial X90 ([3]; listed as Sucrose 1): 4.5 μm
4 | OC[C@H]1O[C@@](CO)(O[C@H]2O[C@H](CO)[C@@H](O)[C@H](O)[C@H]2O)[C@@H](O)[C@@H]1O [Sucrose B, Sucrose] |  |  |  |  |  |  | smoother surfaces and more rounded edges | stable and showed no crystallization event | good stability | Particle Size Distribution Initial X10 ([1]; listed as Sucrose 2): 0.6 μm; Physical Stability [5]: Stable,; Particle Size Distribution T = 1 day at 25° C./60% RH Span ([5]; T = 1 day at 25° C./60% RH): 1.9; Particle Size Distribution T = 1 day at 25° C./60% RH X10 ([5]; T = 1 day at 25° C./60% RH): 0.7 μm; Particle Size Distribution T = 1 day at 25° C./60% RH X50 ([5]; T = 1 day at 25° C./60% RH): 2.5 μm; Particle Size Distribution T = 1 day at 25° C./60% RH X90 ([5]; T = 1 day at 25° C./60% RH): 5.2 μm; Particle Size Distribution Initial Span ([3]; listed as Sucrose 2): 1.9; Particle Size Distribution Initial X50 ([3]; listed as Sucrose 2): 2.2 μm; Particle Size Distribution Initial X90 ([3]; listed as Sucrose 2): 4.9 μm
5 | C[N+]1(C)CCC(OC(=O)C(O)(c2ccccc2)C2CCCC2)C1.[Br-] (stereo not drawn) [glycopyrrolate, 3-[(cyclopentylhydroxyphenylacetyl)oxy]-1,1-dimethylpyrrolidinium bromide] |  |  |  |  |  |  |  |  |  | RH required to promote annealing ([6]; at 60° C.): 10 % RH; RH at which fast crystallization of amorphous material will occur ([6]; in the range of 20-40° C.): > 50%
